Results from the NIST ThermoML archive (doi:10.1021/je049777o).
Where “and” joins values, the source holds several entries; their conditions need not be identical. Equal entries are not always repeated.

Experiments:
[1] = 101.3 kPa, Liquid
[2] = xn = mol fraction of the nth substance listed; details: 101.3 kPa, Liquid

Clc1ccccc1 [chlorobenzene]
[1]
Details | mass density [kg/m3] | viscosity [mPa·s]
293.15 K | 1106.74 | 0.8084
298.15 K | 1101.33 | 0.7422
303.15 K | 1095.96 | 0.7053
313.15 K | 1085.06 | 0.631
323.15 K | 1074.26 | 0.5677
333.15 K | 1063.32 | 0.5069
343.15 K | 1052.44 | 0.4658

COC(=O)OC [dimethyl carbonate]
[1]
Details | mass density [kg/m3] | viscosity
293.15 K | 1069.54 | 0.6163 mPa·s and 0.6173 mPa·s
298.15 K | 1062.95 | 0.5771 mPa·s and 0.5734 mPa·s
303.15 K | 1056.35 | 0.5433 mPa·s and 0.5403 mPa·s
313.15 K | 1043.01 | 0.482 mPa·s and 0.4807 mPa·s
323.15 K | 1029.59 | 0.4319 mPa·s and 0.427 mPa·s
333.15 K | 1016 | 0.3893 mPa·s
343.15 K | 1002.32 | 0.3527 mPa·s

COC(=O)OC [dimethyl carbonate] + Clc1ccccc1
[2], x1 = 1
Details | mass density [kg/m3] | viscosity [mPa·s]
293.15 K | 1069.54 | 0.6163
298.15 K | 1062.95 | 0.5771
303.15 K | 1056.35 | 0.5433
313.15 K | 1043.01 | 0.482
323.15 K | 1029.59 | 0.4319
333.15 K | 1016 | 0.3893
343.15 K | 1002.32 | 0.3527

CCCCCCC [heptane]
[1]
Details | mass density [kg/m3] | viscosity [mPa·s]
293.15 K | 687.14 | 0.4038
298.15 K | 682.91 | 0.3831
303.15 K | 678.61 | 0.3629
313.15 K | 669.91 | 0.3274
323.15 K | 661.16 | 0.298
333.15 K | 652.26 | 0.2704
343.15 K | 643.31 | 0.2487

CCCCCCC [heptane] + COC(=O)OC
[2], x2 = 0
Details | mass density [kg/m3] | viscosity [mPa·s]
293.15 K | 687.14 | 0.4038
298.15 K | 682.91 | 0.3831
303.15 K | 678.61 | 0.3629
313.15 K | 669.91 | 0.3274
323.15 K | 661.16 | 0.298
333.15 K | 652.26 | 0.2704
343.15 K | 643.31 | 0.2487

CCCCCC [hexane]
[1]
Details | mass density [kg/m3] | viscosity [mPa·s]
293.15 K | 662 | 0.302
298.15 K | 657.44 | 0.2886
303.15 K | 652.87 | 0.2774
313.15 K | 643.55 | 0.2504
323.15 K | 634.07 | 0.2339
333.15 K | 624.39 | 0.2114

CCCCCC [hexane] + COC(=O)OC
[2], x2 = 0
Details | mass density [kg/m3] | viscosity [mPa·s]
293.15 K | 662 | 0.302
298.15 K | 657.44 | 0.2886
303.15 K | 652.87 | 0.2774
313.15 K | 643.55 | 0.2504
323.15 K | 634.07 | 0.2339
333.15 K | 624.39 | 0.2114
